Laboratory results published in paper PMC9757636, “The effectiveness of newly synthesized quaternary ammonium salts differing in chain length and type of counterion against priority human pathogens” (Scientific Reports, 2022).
Marks after values point to notes of the source that are not given here.

What was measured:
[1] = system: S. epidermidis ATCC 35984 biofilm; assay: Biofilm eradication; type: cell-based, Staphylococcus epidermidis; conditions: 10 µM, 4 h
Description: (§1) Biofilm eradication assay was performed according to the method of Christensen et al. with modifications. A standardized bacterial (OD = 0.6) suspension of 100 µL was spotted into a 96-well polystyrene plate. They were incubated for 24 h at 37 °C. Cultures were removed, the plate was washed and then concentrations of QAS ([…]) were added, incubated for 4 h at 37 °C with 100 rpm shaking. The wells were washed with miliQ and fixed at 60 °C for 20 min. The wells were […] with 0.1% crystal violet solution for 5 min. The wells were washed with miliQ until the unfixed dye was completely eluted. The absorbance at λ = 590 nm was measured using a reader (Bio-Rad Universal Hood II). The positive control was an untreated biofilm. Three independent test trials were performed.

E. coli H64 = assay: MIC/MBC microdilution; type: cell-based, Escherichia coli
Description: (§2) The minimum inhibitory concentration (MIC) of the tested monomeric QAS was performed using the microdilution method according to CLSI recommendation (M27-A3). Concentrations from 10 to 1280 µM were analyzed. Strains were incubated with or without compounds (growth control) for 24 h at 37 °C. Three independent replicates were performed. The MIC value was determined spectrophotometrically and the concentration that inhibited more than 90% of growth was determined. Optical density was measured at λ = 590 nm using a 96-well microplate reader (Bio-Rad Universal Hood II).
(§3) To determine the minimum bactericidal concentration (MBC), 10 µL of bacterial suspension incubated with monomeric QAS (MIC concentration and two times higher) was transferred to plates with LB (1% tryptone, 1% yeast extract, 0.5% NaCl) medium. […] The concentration that reduced 99.9% of microbial growth was determined as MBC[54].

E. coli ATCC 11229 = assay: MIC/MBC microdilution; type: cell-based, Escherichia coli; conditions: E. coli ATCC 11229; for MBC: 99.9% reduction, read-out: Minimal bactericidal concentration (*MBC); for MIC: 24 h, 37 °C, >90% growth inhibition, read-out: Minimal inhibitory concentration (MIC)
Description: as §2, §3

S. epidermidis B374 [2] = assay: Adhesion to stainless steel; type: cell-based, Staphylococcus epidermidis; conditions: Staphylococcus epidermidis, 1280 µM, ranges given over several strains
[3] = system: Salmonella typhimurium TA100; assay: Mutagenicity (Ames test); type: cell-based; conditions: for Number of colonies: ± SD
Description: (§4) Two reference strains of Salmonella Typhimurium TA98 and Salmonella Typhimurium TA100, deficient in histidine synthesis, were used for this study according to the method proposed by Ames et al. with modifications. […] The mixture was mixed and poured onto a Davis minimal medium plate. The mixture without the test compound was used as a negative control. The positive control was a mixture of bacterial culture, biotin-histidine solution, and sodium azide (at a concentration of 15 μg/mL for strain TA100) or acriflavine (at a concentration of 100 μg/mL for strain TA98). Plates were incubated for 48 h at 37 °C, and then colonies were counted. The mutagenicity ratio (MR), the ratio of the number of revertants grown in the presence of the test compound to the number of spontaneously occurring revertants (negative control), was calculated. A mutagenic ratio equal to or greater than 1.7 indicates the mutagenic potential of the tested compounds. The study was performed in three times.

[4] = system: Salmonella typhimurium TA98; assay: Mutagenicity (Ames test); type: cell-based; conditions: for Number of colonies: ± SD
Description: as §4

P. aeruginosa PAO1 [5] = assay: Adhesion to stainless steel; type: cell-based, Pseudomonas aeruginosa
[6] = system: S. epidermidis ATCC 35984; assay: Adhesion to polystyrene plate; type: cell-based, Staphylococcus epidermidis; conditions: concentration not given
Description: (§5) Adhesion analysis to polystyrene surfaces was determined according to the method of Rodrigues et al. with modifications. Polystyrene 96-well plates were incubated with the respective compound concentrations (10–1280 µM) for 4 h at 37 °C with 100 rpm shaking. The plates were then washed with miliQ and inoculated with 100 µL of bacterial suspension (OD = 0.4–0.6). Plates were incubated for 6 h at 37 °C with 100 rpm shaking. Wells were rinsed and fixed for 20 min at 60 °C. They were then […] with 0.1% crystal violet solution for 5 min. The wells were washed with miliQ until the unfixed dye was completely eluted. The absorbance at λ = 590 nm was measured using a reader (Bio-Rad Universal Hood II). The positive control was a surface not treated with QAS. Three independent trials were performed.

S. epidermidis B374 [7] = assay: Adhesion to polystyrene plate; type: cell-based, Staphylococcus epidermidis; conditions: 160 µM
Description: as §5

[8] = system: S. epidermidis ATCC 35984; assay: MIC/MBC microdilution; type: cell-based, Staphylococcus epidermidis
Description: as §2, §3

S. epidermidis SI8 = assay: MIC/MBC microdilution; type: cell-based, Staphylococcus epidermidis
Description: as §2, §3

S. epidermidis B374 [9] = assay: MIC/MBC microdilution; type: cell-based, Staphylococcus epidermidis; conditions: S. epidermidis B374; for Minimal bactericidal concentration (*MBC): 99.9% reduction; for Minimal inhibitory concentration (MIC): 24 h, 37 °C, >90% growth inhibition
Description: as §2, §3

[10] = system: S. epidermidis ATCC 35984; assay: Adhesion to stainless steel; type: cell-based, Staphylococcus epidermidis; conditions: 160 µM
P. aeruginosa PAO1 [11] = assay: MIC/MBC microdilution; type: cell-based, Pseudomonas aeruginosa
Description: as §2, §3

P. aeruginosa ATCC 27853 = assay: MIC/MBC microdilution; type: cell-based, Pseudomonas aeruginosa
Description: as §2, §3

[12] = system: P. aeruginosa PAO1 biofilm; assay: Biofilm eradication; type: cell-based, Pseudomonas aeruginosa; conditions: 20 µM, 4 h
Description: as §1

P. aeruginosa PAO1 [13] = assay: Adhesion to glass; type: cell-based, Pseudomonas aeruginosa; conditions: concentration not given
[14] = Critical micelle concentration by conductometric measurements; type: physicochemical; conditions: aqueous solution, 25 °C
Description: Values of critical micelle concentrations (CMC) of cationic surfactants were measured conductrometrically. N5721 conductometer (Tel-Eko Projekt sp z o.o., Poland), equipped with N5981 probe, was calibrated using 0.1 M, 0.01 M and 0.001 M KCl aqueous solutions (conductivities equal to 1.287 S/m, 0.141 S/m and 0.0147 S/m, respectively) and used without temperature compensation mode (constant temperature 25 °C was kept during all calibration procedures and measurements). Values of specific conductivities of at least 15 different concentrations for each surfactant were measured and plotted versus concentration; the discontinuity point was used to determine critical micelle concentration.

P. aeruginosa PAO1 [15] = assay: Adhesion to polystyrene plate; type: cell-based, Pseudomonas aeruginosa; conditions: concentration not given
Description: as §5

S. aureus ATCC 6538 = assay: MIC/MBC microdilution; type: cell-based, Staphylococcus aureus; conditions: S. aureus ATCC 6538; for Minimal bactericidal concentration (*MBC): 99.9% reduction; for Minimal inhibitory concentration (MIC): 24 h, 37 °C, >90% growth inhibition
Description: as §2, §3

S. aureus MRSA R98 = assay: MIC/MBC microdilution; type: cell-based, Staphylococcus aureus; conditions: for Minimal bactericidal concentration (*MBC): 99.9% reduction; for Minimal inhibitory concentration (MIC): 24 h, 37 °C, >90% growth inhibition
Description: as §2, §3

[16] = system: S. epidermidis B374 biofilm; assay: Biofilm eradication; type: cell-based, Staphylococcus epidermidis; conditions: 160 µM, 4 h
Description: as §1

[17] = system: S. epidermidis B374 biofilm; assay: Biofilm-oriented antiseptics test (BOAT); type: cell-based, Staphylococcus epidermidis; conditions: 640 µM
Excerpt: Colonies were then counted.

[18] = 24 h, 37 °C, >90% growth inhibition

Compound	MBC (E. coli ATCC 11229)	MIC (E. coli ATCC 11229)	Number of colonies ([3]; ¼ MIC)	Mutagenicity index ([3]; ½ MIC)	Number of colonies ([3]; ½ MIC)	Mutagenicity index ([4]; ¼ MIC)	Number of colonies ([4]; ¼ MIC)	Mutagenicity index ([4]; ½ MIC)	Number of colonies ([4]; ½ MIC)	reduction of adhesion to polystyrene (S. epidermidis B374 [7])	Minimal bactericidal concentration (*MBC) (S. epidermidis B374 [9])	Minimal inhibitory concentration (MIC) (S. epidermidis B374 [9])	reduction of adhesion to stainless steel [10]	biofilm eradication [12]	CMC [14]	Minimal bactericidal concentration (*MBC) (S. aureus ATCC 6538)	Minimal inhibitory concentration (MIC) (S. aureus ATCC 6538)	Minimal bactericidal concentration (*MBC) (S. aureus MRSA R98)	Minimal inhibitory concentration (MIC) (S. aureus MRSA R98)	other results
CCCCCCCCCCCCCCCC(=O)N(C)CCC[N+](C)(C)C.[Br-] [BrC16]	1280 µM	640 µM	151.3 ± 3.5	1.06	134 ± 1	2.76	70.5 ± 12	1.84	47 ± 14.1	approximately 85%	10 *10 µM	10 *10 µM	77%	50–60%	0.00073 mol/L	320 *320 µM	320 *320 µM	320 *320 µM	320 *320 µM	biofilm destruction [1]: approximately 40%; Minimal bactericidal concentration (*MBC) (E. coli H64; E. coli H64, 99.9% reduction): 160 *160 µM; Minimal inhibitory concentration (MIC) (E. coli H64; E. coli H64, 24 h, 37 °C, >90% growth inhibition): 160 *160 µM; inhibition at 1280 µM (S. epidermidis B374 [2]): 17 to 22%; mutagenicity index (MR) ([3]; base pair substitution type mutations, MR >= 1.7 indicates mutagenic potential): < 1.7; mutagenicity index (MR) ([4]; reading frame shift type mutation, MR >= 1.7 indicates mutagenic potential): above 1.7; inhibition at 1280 µM (P. aeruginosa PAO1 [5]; Pseudomonas aeruginosa, PAO1, read-out: inhibition of adhesion to stainless steel): 17 to 22%; reduction of adhesion to polystyrene [6]: did not reduce the adhesion; Minimal bactericidal concentration (*MBC) ([8]; 99.9% reduction): 640 *640 µM; Minimal inhibitory concentration (MIC) [8, 18]: 640 *640 µM; Minimal bactericidal concentration (*MBC) (S. epidermidis SI8; 99.9% reduction): 10 *10 µM; Minimal inhibitory concentration (MIC) (S. epidermidis SI8; [18]): 10 *10 µM; Minimal bactericidal concentration (*MBC) (P. aeruginosa PAO1 [11]; 99.9% reduction): > 1280 * > 1280 µM; Minimal inhibitory concentration (MIC) (P. aeruginosa PAO1 [11]; [18]): > 1280 * > 1280 µM; Minimal bactericidal concentration (*MBC) (P. aeruginosa ATCC 27853; P. aeruginosa ATCC 27853, 99.9% reduction): > 1280 * > 1280 µM; Minimal inhibitory concentration (MIC) (P. aeruginosa ATCC 27853; P. aeruginosa ATCC 27853, 24 h, 37 °C, >90% growth inhibition): > 1280 * > 1280 µM; reduction of adhesion to glass (P. aeruginosa PAO1 [13]): approximately 20%; reduction of adhesion to polystyrene (P. aeruginosa PAO1 [15]): did not reduce the adhesion
CC(=O)[O-].CCCCCCCCCCCCCCCC(=O)N(C)CCC[N+](C)(C)C [AcC16]	160 µM	80 µM	107.5 ± 2.1	0.66	132.5 ± 13.4	0.93	23.7 ± 4.7	1.11	28.3 ± 6.4	approximately 44%	40 *40 µM	40 *40 µM	approximately 93%	50–60%	0.0016 mol/L	80 *80 µM	80 *80 µM	10 *10 µM	10 *10 µM	biofilm eradication [16]: 70–80%; MIC (E. coli H64; Escherichia coli, H64, 24 h, E. coli H64, 24 h, 37 °C, >90% growth inhibition, read-out: Minimal inhibitory concentration (MIC)): 160 µM; MBC (E. coli H64; Escherichia coli, H64, E. coli H64, 99.9% reduction, read-out: Minimal bactericidal concentration (*MBC)): 320 µM; Mutagenicity index ([3]; ¼ MIC): 0.54; cell survival in biofilm (BOAT) ([17]; 30 min): 30%; cell survival in biofilm (BOAT) ([17]; 60 min): 9.5%; reduction of adhesion to stainless steel (P. aeruginosa PAO1 [5]; P. aeruginosa PAO1, 160 µM): 58%; MBC ([8]; Staphylococcus epidermidis, ATCC35984, 99.9% reduction, read-out: Minimal bactericidal concentration (*MBC)): 640 µM; MIC ([8]; Staphylococcus epidermidis, ATCC35984, 24 h, 37 °C, >90% growth inhibition, read-out: Minimal inhibitory concentration (MIC)): 640 µM; MBC (S. epidermidis SI8; Staphylococcus epidermidis, 99.9% reduction, read-out: Minimal bactericidal concentration (*MBC)): 10 µM; MIC (S. epidermidis SI8; Staphylococcus epidermidis, 24 h, 37 °C, >90% growth inhibition, read-out: Minimal inhibitory concentration (MIC)): 10 µM; MBC (P. aeruginosa PAO1 [11]; Pseudomonas aeruginosa, 99.9% reduction, read-out: Minimal bactericidal concentration (*MBC)): > 1280 µM; MIC (P. aeruginosa PAO1 [11]; Pseudomonas aeruginosa, 24 h, 37 °C, >90% growth inhibition, read-out: Minimal inhibitory concentration (MIC)): > 1280 µM; MIC (P. aeruginosa ATCC 27853; Pseudomonas aeruginosa, ATCC27853, 24 h, P. aeruginosa ATCC 27853, 24 h, 37 °C, >90% growth inhibition, read-out: Minimal inhibitory concentration (MIC)): > 1280 µM; MBC (P. aeruginosa ATCC 27853; Pseudomonas aeruginosa, ATCC27853, P. aeruginosa ATCC 27853, 99.9% reduction, read-out: Minimal bactericidal concentration (*MBC)): > 1280 µM
